Molecular target: T1, recombinant Axl tyrosine kinase (Homo sapiens, UniProt P30530)
T1 construct: encompassing amino acids 473 to 894 of Axl; GST (N); made in house; host or cells: SF126 insect cells
T1 sequence (P30530 473-894): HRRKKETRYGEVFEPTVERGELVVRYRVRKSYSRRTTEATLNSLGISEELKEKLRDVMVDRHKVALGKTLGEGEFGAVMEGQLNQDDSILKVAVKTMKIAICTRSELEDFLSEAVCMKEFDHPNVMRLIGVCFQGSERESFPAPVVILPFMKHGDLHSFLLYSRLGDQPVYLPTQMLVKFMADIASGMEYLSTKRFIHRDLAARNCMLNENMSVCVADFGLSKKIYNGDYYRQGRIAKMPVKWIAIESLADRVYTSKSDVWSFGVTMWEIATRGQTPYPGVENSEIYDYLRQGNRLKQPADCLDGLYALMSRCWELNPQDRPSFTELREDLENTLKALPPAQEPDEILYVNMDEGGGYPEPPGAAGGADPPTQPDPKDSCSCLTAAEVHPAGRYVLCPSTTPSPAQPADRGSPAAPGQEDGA
Experiment: In vitro Axl kinase assay (AlphaScreen), Test (a)
Assay type: biochemical
Details: test compound at 1 μM; first value quoted

Going from N#CCc1ccc(-c2cnc(N)c(-c3nc4ccccc4o3)n2)cc1 [Example 20.19] to CN(C)CCn1cc(-c2cnc(N)c(-c3nc4ccccc4o3)c2)cn1 [Example 27.5], the “% Axl tyrosine kinase inhibition at 1 μM concentration” value (“% Axl tyrosine kinase inhibition” for short) rises from 98.3% to 98.4%.

First: N#CCC1(n2cc(-c3cnc(N)c(-c4nc5ccccc5o4)c3)cn2)CCNCC1 [Example 25.1]
Second: Nc1ncc(-c2cnn(CC3CCNCC3)c2)cc1-c1nc2ccccc2o1 [Example 29.7]
The “% Axl tyrosine kinase inhibition” value of the first is lower: 95.0% for the first, 99.8% for the second.

COc1nn(C2CCNCC2)cc1-c1cnc(N)c(-c2nc3ccccc3o2)c1 [Example 25.2] and CCOc1nn(C2CCNCC2)cc1-c1cnc(N)c(-c2nc3ccccc3o2)c1 [Example 25.3] are the same in “% Axl tyrosine kinase inhibition” value: 100.0% for the first, 100.0% for the second.

Going from CN1CCN(c2ccc(-c3cnc(N)c(-c4nc5ncccc5o4)c3)cc2)CC1 [Example 25.7] to CN1CCN(c2ccc(-c3cnc(N)c(-c4nc5cccnc5o4)c3)cc2)CC1 [Example 25.10], the “% Axl tyrosine kinase inhibition” value falls from 99.1% to 97.7%.

First: COc1cc(-c2cnc(N)c(-c3nc4ncccc4o3)c2)ccc1N1CCNCC1 [Example 25.8]
Second: Cc1nn(C2CCNCC2)cc1-c1cnc(N)c(-c2nc3ncccc3o2)c1 [Example 25.16]
The “% Axl tyrosine kinase inhibition” value of the first is lower: 99.8% for the first, 99.9% for the second.

First: CN1CCN(c2ncc(-c3cnc(N)c(-c4nc5cccnc5o4)c3)s2)CC1 [Example 25.12]
Second: CN1CCN(CCCn2cc(-c3cnc(N)c(-c4nc5ccccc5o4)c3)cn2)CC1 [Example 31.5]
The “% Axl tyrosine kinase inhibition” value of the first is lower: 38.2% for the first, 100.0% for the second.

Going from CN1CCCC(Cn2cc(-c3cnc(N)c(-c4nc5ccccc5o4)c3)cn2)C1 (stereo not shown) [Example 27.1] to Nc1ncc(-c2cnn(CC3CNC3)c2)cc1-c1nc2ccccc2o1 [Example 29.4], the “% Axl tyrosine kinase inhibition” value falls from 100.0% to 99.1%.

Going from Nc1ncc(-c2cnn(CCCN3CCCC3)c2)cc1-c1nc2ccccc2o1 [Example 27.2] to Nc1ncc(-c2cnn(CCCN3CCC3)c2)cc1-c1nc2ccccc2o1 [Example 31.6], the “% Axl tyrosine kinase inhibition” value falls from 99.9% to 99.7%.

Going from Nc1ncc(-c2cnn(CCN3CCCC3)c2)cc1-c1nc2ccccc2o1 [Example 27.3] to Nc1ncc(-c2cnn(CCN3CCC[C@@H]3CO)c2)cc1-c1nc2ccccc2o1 [Example 31.8], the “% Axl tyrosine kinase inhibition” value rises from 96.4% to 99.7%.

Going from CN(C)CCCn1cc(-c2cnc(N)c(-c3nc4ccccc4o3)c2)cn1 [Example 27.4] to Nc1ncc(-c2cnn(CCCN3CCC(O)C3)c2)cc1-c1nc2ccccc2o1 (stereo not shown) [Example 31.1], the “% Axl tyrosine kinase inhibition” value rises from 99.2% to 100.0%.

First: CN1C2CCC1CC(n1cc(-c3cnc(N)c(-c4nc5ccccc5o4)c3)cn1)C2 (stereo not shown) [Example 27.6]
Second: Nc1ncc(-c2cnn(C3CCOCC3)c2)cc1-c1nc2ccccc2o1 [Example 27.7]
The “% Axl tyrosine kinase inhibition” value of the first is higher: 99.9% for the first, 99.8% for the second.

Going from Nc1ncc(-c2cnn(C3CNC3)c2)cc1-c1nc2ccccc2o1 [Example 29.2] to Nc1ncc(-c2cnn(C3CCNC3)c2)cc1-c1nc2ccccc2o1 (stereo not shown) [Example 29.3], the “% Axl tyrosine kinase inhibition” value rises from 99.8% to 99.9%.

Nc1ncc(-c2cnn(C3CCCNC3)c2)cc1-c1nc2ccccc2o1 (stereo not shown) [Example 29.6] and Nc1ncc(-c2cnn(CCCN3CCC[C@@H]3CO)c2)cc1-c1nc2ccccc2o1 [Example 31.2] are the same in “% Axl tyrosine kinase inhibition” value: 99.9% for the first, 99.9% for the second.

Cc1nn(C2CCNCC2)c(C)c1-c1cnc(N)c(-c2nc3ccccc3o2)c1 [Example 29.8] was tested, and the “% Axl tyrosine kinase inhibition” value was 88.7%.

Same assay, conditions: test compound at 1 μM; first value quoted; read-out: % Axl tyrosine kinase inhibition at 1 μM concentration

Going from Cc1nn(C2CCNCC2)cc1-c1cnc(N)c(-c2nc3ccccc3o2)n1 [Example 20.20, 3-(1,3-benzoxazol-2-yl)-5-[3-methyl-1-(4-piperidyl)pyrazol-4-yl]pyrazin-2-amine] to Nc1ncc(-c2cn(C3CCNCC3)nc2CO)cc1-c1nc2ccccc2o1 [Example 25.13, [4-[6-amino-5-(1,3-benzoxazol-2-yl)-3-pyridyl]-1-(4-piperidyl)pyrazol-3-yl]methanol], the inhibition at 1 µM rises from 99.9% to 100%.

Compared with Cc1nn(C2CCN(C(=O)OC(C)(C)C)CC2)cc1-c1cnc(N)c(-c2nc3ccccc3o2)c1 [Example 21, Tert-butyl 4-[4-[6-amino-5-(1,3-benzoxazol-2-yl)-3-pyridyl]-3-methyl-pyrazol-1-yl]piperidine-1-carboxylate], COCc1nn(C2CCNCC2)cc1-c1cnc(N)c(-c2nc3ccccc3o2)c1 [Example 25.14, 3-(1,3-benzoxazol-2-yl)-5-[3-(methoxymethyl)-1-(4-piperidyl)pyrazol-4-yl]pyridin-2-amine] is higher in inhibition at 1 µM: 9.7% for the first, 100% for the second.

Cc1c(-c2cnc(N)c(-c3nc4ccccc4o3)c2)cnn1C1CCNCC1 [Example 24, 3-(1,3-benzoxazol-2-yl)-5-[5-methyl-1-(4-piperidyl)pyrazol-4-yl]pyridin-2-amine] and Cc1nn(C2CCNCC2)cc1-c1cnc(N)c(-c2nc3c(F)cccc3o2)c1 [Example 25A, 3-(4-fluoro-1,3-benzoxazol-2-yl)-5-[3-methyl-1-(4-piperidyl)pyrazol-4-yl]pyridin-2-amine] are the same in inhibition at 1 µM: 100% for the first, 100% for the second.

Going from CN1CCN(c2ncc(-c3cnc(N)c(-c4nc5ccccc5o4)c3)s2)CC1 [Example 25.5, 3-(1,3-benzoxazol-2-yl)-5-[2-(4-methylpiperazin-1-yl)thiazol-5-yl]pyridin-2-amine] to CN1CCN(CCn2cc(-c3cnc(N)c(-c4nc5ccccc5o4)c3)cn2)CC1 [Example 30, 3-(1,3-benzoxazol-2-yl)-5-[1-[2-(4-methylpiperazin-1-yl)ethyl]pyrazol-4-yl]pyridin-2-amine], the inhibition at 1 µM rises from 82.9% to 99.8%.

Going from COc1cc(N2CCN(C)CC2)ccc1-c1cnc(N)c(-c2nc3ncccc3o2)c1 [Example 25.6, 5-[2-methoxy-4-(4-methylpiperazin-1-yl)phenyl]-3-oxazolo[4,5-b]pyridin-2-yl-pyridin-2-amine] to Nc1ncc(-c2cnn(CCN3CCOCC3)c2)cc1-c1nc2ccccc2o1 [Example 26, 3-(1,3-benzoxazol-2-yl)-5-[1-(2-morpholinoethyl)pyrazol-4-yl]pyridin-2-amine], the inhibition at 1 µM falls from 99.5% to 99.3%.

First: Nc1ncc(-c2cnn(CCO)c2)cc1-c1nc2ccccc2o1 [Example 28, 2-[4-[6-amino-5-(1,3-benzoxazol-2-yl)-3-pyridyl]pyrazol-1-yl]ethanol]
Second: Nc1ncc(-c2cnn(CCCO)c2)cc1-c1nc2ccccc2o1 [Example 29.1, 3-[4-[6-amino-5-(1,3-benzoxazol-2-yl)-3-pyridyl]pyrazol-1-yl]propan-1-ol]
The inhibition at 1 µM of the first is lower: 99.3% for the first, 99.7% for the second.

Same assay, conditions: test compound at 30 μM; read-out: % of Axl tyrosine kinase activity inhibited at a concentration of 30 μM

With Cc1nn(C2CCN(C(=O)OC(C)(C)C)CC2)cc1-c1cnc(N)c(-c2nc3ccccc3o2)c1 [Example 21, Tert-butyl 4-[4-[6-amino-5-(1,3-benzoxazol-2-yl)-3-pyridyl]-3-methyl-pyrazol-1-yl]piperidine-1-carboxylate] the inhibition at 30 µM was 76.4%.
